# Reference: US6762052B1, “DNA sequence encoding flavin-containing monooxygenase” (priority 1993, dated 2004)
# Columns and labels:
# [1] = molecular target: T1, adult human liver flavin-containing monooxygenase (form 3) (Homo sapiens, UniProt P31513, E158K); assay: N- and S-oxygenation by cDNA-expressed HLFMO 3 (solubilized protein from E. coli transformed with pTrcHLFMO 3), HPLC
# T1 sequence (P31513 1-532 E158K): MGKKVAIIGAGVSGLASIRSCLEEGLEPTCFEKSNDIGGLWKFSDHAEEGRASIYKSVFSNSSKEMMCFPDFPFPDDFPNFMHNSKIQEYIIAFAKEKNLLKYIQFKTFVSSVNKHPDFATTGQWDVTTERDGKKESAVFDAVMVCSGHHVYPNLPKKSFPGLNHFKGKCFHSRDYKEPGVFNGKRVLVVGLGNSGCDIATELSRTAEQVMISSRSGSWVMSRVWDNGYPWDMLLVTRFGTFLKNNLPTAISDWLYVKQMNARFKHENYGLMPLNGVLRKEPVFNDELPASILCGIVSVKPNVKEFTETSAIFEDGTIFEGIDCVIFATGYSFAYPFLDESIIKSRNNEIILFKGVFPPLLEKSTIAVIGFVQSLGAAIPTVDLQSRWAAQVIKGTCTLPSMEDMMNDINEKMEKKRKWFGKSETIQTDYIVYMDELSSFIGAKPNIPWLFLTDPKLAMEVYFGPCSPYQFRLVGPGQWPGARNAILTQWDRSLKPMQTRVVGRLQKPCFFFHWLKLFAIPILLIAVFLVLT
# Method: (§1) In all cases examined, product formation was directly determined by HPLC analysis of organic extracts.
# Competent NM522 Escherichia coli cells were transformed with the pTrc HLFMO 3 plasmid. […] After inoculation with a fresh overnight culture of NM522 containing pTrcHLFMO 3, the culture was grown at 37° C. until Abs600 was approximately 0.5 absorbance units. Finally, IPTG (0.8 mM) was added to the culture to induce expression of protein and the culture was left to grow overnight at 37° C.
# The bacterial pellet was resuspended in 5 volumes of 50 mM potassium phosphate buffer (pH 8.4) containing 1% Triton X-100, 0.1% L-, α-phosphatidylcholine (L-α-lecithin) from egg yolk, 500 μM PMSF, and 1 mM EDTA. The mixture was sonicated and then centrifuged to remove cellular debris. As a control, bacterial lysate extracts from IPTG-induced pTrc99A-transformed NM522 cells (i.e., pTrc99A without the HLFMO 3 cDNA insert) were prepared under the same conditions.
# (§2) Human liver samples were obtained from the Department of Surgery (UCSF) and with a protocol from the Medical College of Wisconsin (S. Wrighton).
# (§3) A typical incubation mixture (final volume 0.25 ml) contained hepatic microsomes (0.4 mg of protein) or bacterial lysate (2.3 mg of protein), NADP^+ (0.5 mM), glucose-6-phosphate (2.0 mM), glucose-6-phosphate dehydrogenase (1 IU), DETAPAC (0.8 mM) and potassium phosphate buffer (50 mM, pH 8.4). Reactions were initiated by the addition of substrate and terminated at designated times by the addition of three volumes of cold dichloromethane, mixed thoroughly and centrifuged to separate the aqueous and organic fractions. N- and S-oxide metabolic products in the resulting organic extracts were separated and quantified by HPLC. […] Thiobenzamide and thiobenzamide S-oxide were quantified with this same, HPLC system employing a mobile phase of methanol/acetonitrile/60% perchloric acid (20:80:0.016, v/v) which gave retention volumes of 2.7 and 7.0 ml, respectively. […] The major metabolites formed in the incubations were also subjected to mass spectral analysis after extraction of isolated HPLC fractions.
# (§4) RPLC of the S-oxide diastereomers with a Chiracel OT chiral analytical column (25 cm×0.15 cm inner diameter, Daicel Chemical Co., New York, N.Y.) was accomplished with a Beckman system, Kratos UV detector (240 nm) and a Hewlett Packard Integrator. […] Quantification was accomplished by comparing integrated HPLC peak areas after taking into account the difference in the extinction coefficients at 240 nm. Likewise, the cis and trans S-oxide diasteromers of (+)- and (−)-2-methyl-1,-benzodithiole were separated with a Chiracel OT chiral analytical column.
# in vitro = conditions: human, pH 8.4
# Method: as §1, §2, §3, §4
# Human Liver Microsomes = assay: in vitro
# Method: as §1, §2, §3, §4
structure (smiles),measurement,setting,value
"NC(=S)c1ccccc1 [Thiobenzamide, thiobenzamide]","substrate activity for human liver microsomes and expressed HLFMO 3, in words",[1],excellent substrates
same,pH of maximum S-oxygenase activity,[1]; in the presence of microsomes and expressed HLFMO 3,~8.5
same,Km,in vitro,14.9 µM
same,"Vmax, Human Liver Microsomes",Human Liver Microsomes,1.3 nmol/min/mg of protein
